In PMC5004831, “Molecular and biochemical characterization of carbonic anhydrases of Paracoccidioides” (Genetics and Molecular Biology, 2016):

Assays:
[1] = target: T1, rCA1 (CA1), beta-class carbonic anhydrase of Paracoccidioides (Paracoccidioides lutzii, UniProt C1H4M3); test: CO2 hydration, electrometric (Wilbur-Anderson); assay type: biochemical; conditions: read-out: CA1- Residual Activity (%)
T1 construct: gene PAAG_05716; complete cDNA, 282 residues, GST fusion (pGEX-4T-3) from E. coli, GST cut by thrombin; 33 kDa
T1 sequence (C1H4M3 1-282): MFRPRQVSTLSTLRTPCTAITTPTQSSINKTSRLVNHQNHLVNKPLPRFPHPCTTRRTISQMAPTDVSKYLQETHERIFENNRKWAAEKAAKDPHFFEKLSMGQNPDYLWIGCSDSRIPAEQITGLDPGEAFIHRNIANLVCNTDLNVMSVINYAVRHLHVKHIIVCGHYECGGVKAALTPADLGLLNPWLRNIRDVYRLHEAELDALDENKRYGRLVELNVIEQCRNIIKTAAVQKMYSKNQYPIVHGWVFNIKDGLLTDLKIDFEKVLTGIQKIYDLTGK
Text: CO2 hydration, electrometric (Wilbur-Anderson) on rCA1 (CA1), beta-class carbonic anhydrase of Paracoccidioides

[2] = target: T2, rCA4 (CA4), alpha-class carbonic anhydrase of Paracoccidioides (Paracoccidioides brasiliensis, UniProt B1PIT4); test: CO2 hydration, electrometric (Wilbur-Anderson); assay type: biochemical; conditions: read-out: CA4- Residual Activity (%)
T2 construct: 32 kDa
T2 sequence (B1PIT4 1-301): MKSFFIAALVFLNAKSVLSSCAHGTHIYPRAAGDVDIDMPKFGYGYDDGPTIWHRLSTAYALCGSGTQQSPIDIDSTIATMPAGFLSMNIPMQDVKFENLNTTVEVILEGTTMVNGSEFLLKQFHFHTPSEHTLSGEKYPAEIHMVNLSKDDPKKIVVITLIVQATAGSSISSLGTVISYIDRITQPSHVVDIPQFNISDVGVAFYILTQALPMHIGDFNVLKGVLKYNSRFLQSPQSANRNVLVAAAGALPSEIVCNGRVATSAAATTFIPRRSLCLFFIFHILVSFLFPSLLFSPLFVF
Text: CO2 hydration, electrometric (Wilbur-Anderson) on rCA4 (CA4), alpha-class carbonic anhydrase of Paracoccidioides

| SMILES | remaining activity at 25 µM [1] [%] | remaining activity at 25 µM [2] [%] |
| --- | --- | --- |
| NCCCC[C@H](N)C(=O)O [L-Lys] | 138 | 140 |
| N[C@@H](Cc1cnc[nH]1)C(=O)O [L-His] | 142 | 152 |
| N[C@@H](Cc1c[nH]c2ccccc12)C(=O)O [L-Trp] | 162 | 158 |
| N=C(N)NCCC[C@H](N)C(=O)O [L-Arg] | 130 | 132 |
